The record followed here is US20040106626A1, “6-Membered unsaturated heterocyclic compounds useful for selective inhibition of the coagulation cascade” (Pharmacia Corporation, priority 2001, published 2004).

Where only a bound is given, the exact number is not on record here.

What all share (assay type): biochemical
The target of test [1] is T1, Human factor Xa (Homo sapiens, UniProt P00742).
T1 construct: purchased Enzyme Research Laboratories, South Bend Ind
The test is described as follows: Xa assay (chromogenic substrate S-2765). To be noted: reported only as less than or greater than 30 uM; read-out: Factor Xa (II) IC50. The procedure, abridged: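 Chromogenic readout: S-2765 hydrolysis (0.15 mM) by 0.3 nM human FXa was monitored at 405 nm after 60 min at room temperature, with a time-zero background read. Buffer: 50 mM Tris-HCl, pH 8.0, 100 mM NaCl, 0.1% BSA. Inhibition is relative to buffer-only controls.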

The test system of test [2] is Normal human pooled plasma. Briefly: Prothrombin time (PT) clotting assay. To be noted: concentration at which prothrombin time is prolonged by 2x normal, reported as less than or greater than 50 uM. In outline:
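Normal human pooled plasma incubated with 100 uM compound or saline, then thromboplastin (human tissue factor) added and clotting time recorded in a coagulation machine. Compounds exceeding 3× normal PT (11.0 s) are titrated to find the concentration doubling PT.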

Test [3] has as its target T2, Human thrombin (Homo sapiens, UniProt P00734).
T2 construct: converts prothrombin (II) to thrombin (IIa); purchased Calbiochem, La Jolla, Calif
Briefly: Thrombin assay (chromogenic substrate). The following applies: reported only as less than or greater than 30 uM; read-out: Thrombin (II) IC50. The procedure, abridged:
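Percent inhibition derived by comparing OD405 nm of compound-treated and control samples. Thrombin cleavage of a p-nitroanilide chromogenic substrate provides the signal.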

Test [4] concerns the target T3, recombinant soluble tissue factor and recombinant human factor VIIa (TF-VIIa) (Homo sapiens, UniProt P08709).
T3 construct: conversion of coagulation factor VII to VIIa by factor Xa; purchased American Diagnostica, Greenwich CT; host or cells: soluble TF made in house in E. coli
Briefly: TF-VIIa assay (chromogenic substrate hydrolysis). The following applies: reported only as less than or greater than 0.1 uM. The procedure, abridged: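 Chromogenic read at OD405, compared with control for percent inhibition. Substrate N-methylsulfonyl-D-phe-gly-arg-p-nitroaniline at 0.4 mM is cleaved by recombinant human VIIa (2 nM) complexed with soluble TF (100 nM). Buffer: pH 8.0 Tris-HCl 50 mM, CaCl2 5 mM, NaCl 100 mM, BSA 0.1%.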

T1 sequence (P00742 235-488 limits assumed): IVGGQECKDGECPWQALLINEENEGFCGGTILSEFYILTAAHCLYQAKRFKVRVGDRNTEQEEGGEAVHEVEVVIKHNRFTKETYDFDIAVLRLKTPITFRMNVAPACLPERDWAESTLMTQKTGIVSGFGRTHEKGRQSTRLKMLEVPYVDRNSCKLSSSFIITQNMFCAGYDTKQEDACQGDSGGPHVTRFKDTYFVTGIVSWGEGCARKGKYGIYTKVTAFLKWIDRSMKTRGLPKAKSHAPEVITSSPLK
T1 sequence (P00742 41-179 limits assumed): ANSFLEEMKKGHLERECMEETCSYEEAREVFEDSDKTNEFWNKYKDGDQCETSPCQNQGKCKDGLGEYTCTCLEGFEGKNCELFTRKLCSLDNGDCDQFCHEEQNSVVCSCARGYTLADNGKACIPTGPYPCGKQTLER
T3 sequence (P08709 213-466 limits assumed): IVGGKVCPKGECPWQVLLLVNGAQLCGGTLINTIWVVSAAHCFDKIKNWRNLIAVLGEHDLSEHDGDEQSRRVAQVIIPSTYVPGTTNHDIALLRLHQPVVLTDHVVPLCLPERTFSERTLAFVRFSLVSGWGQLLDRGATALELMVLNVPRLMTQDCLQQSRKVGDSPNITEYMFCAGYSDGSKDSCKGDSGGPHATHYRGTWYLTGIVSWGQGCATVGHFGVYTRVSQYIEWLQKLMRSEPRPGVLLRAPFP
T3 sequence (P08709 61-212 limits assumed): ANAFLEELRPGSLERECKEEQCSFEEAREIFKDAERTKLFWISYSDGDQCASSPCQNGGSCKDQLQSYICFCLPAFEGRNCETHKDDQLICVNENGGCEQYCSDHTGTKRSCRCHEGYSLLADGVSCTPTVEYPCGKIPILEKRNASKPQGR
T3 sequence (P13726 33-251 partner limits assumed): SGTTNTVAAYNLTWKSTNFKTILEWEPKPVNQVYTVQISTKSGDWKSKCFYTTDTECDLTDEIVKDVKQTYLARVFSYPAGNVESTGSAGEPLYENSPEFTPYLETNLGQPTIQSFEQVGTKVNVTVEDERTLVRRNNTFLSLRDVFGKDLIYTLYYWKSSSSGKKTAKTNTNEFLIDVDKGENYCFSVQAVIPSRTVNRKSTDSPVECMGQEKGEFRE

The IC50 is the concentration needed to halve the response being measured. For `CC(C)Nc1ncc(-c2cc(N)cc(C(=O)NCc3ccccc3)c2)n(CC(=O)NCc2ccc(C(=N)N)c(O)c2)c1=O.O=C(O)C(F)(F)F` [Example 161, 3-amino-5-[1-[2-({4-[amino(imino)methyl]-3-hydroxybenzyl}amino)-2-oxoethyl]-5-(isopropylamino)-6-oxo-1,6-dihydropyrazin-2-yl]-N-benzylbenzamide], the IC50 in test [1] was greater than 30 µM; in test [3], greater than 30 µM; in test [4] it was less than 0.1 µM. The “PT (Prothrombin time) 2xPT” value in test [2] is less than 50.0 µM.

As for `CC(C)Nc1ncc(-c2cc(N)cc(C(=O)NCc3ccc(F)cc3)c2)n(CC(=O)NCc2ccc(C(=N)N)c(O)c2)c1=O.O=C(O)C(F)(F)F` [Example 162, 3-amino-5-[1-[2-({4-[amino(imino)methyl]-3-hydroxybenzyl}amino)-2-oxoethyl]-5-(isopropylamino)-6-oxo-1,6-dihydropyrazin-2-yl]-N-(4-fluorobenzyl) benzamide], the IC50 is greater than 30 µM in test [1], greater than 30 µM in test [3] and less than 0.1 µM in test [4]. Moreover, in test [2], the “PT (Prothrombin time) 2xPT” value is less than 50.0 µM.

Regarding `CC[C@H](C)NC(=O)c1cc(N)cc(-c2cnc(NC(C)C)c(=O)n2CC(=O)NCc2c(F)c(O)c(C(=N)N)c(F)c2F)c1.Cl.Cl` [Example 164], the IC50 in test [1] is greater than 30 µM; in test [3] it was greater than 30 µM; in test [4], less than 0.1 µM. In test [2], the “PT (Prothrombin time) 2xPT” value is less than 50.0 µM.

As for `COC(=O)CCNC(=O)c1cc(N)cc(-c2cnc(NC(C)C)c(=O)n2CC(=O)NCc2ccc(C(=N)N)cc2)c1` [Example 165], the half-inhibitory concentration (IC50) in test [1] was greater than 30 µM; in test [3] it was greater than 30 µM; in test [4], less than 0.1 µM. In addition, in test [2], the “PT (Prothrombin time) 2xPT” value is less than 50.0 µM.

For the compound `CC(C)Nc1ncc(-c2cc(N)cc(C(=O)NCc3cccc(O)c3)c2)n(CC(=O)NCc2ccc(C(=N)N)cc2)c1=O` [Example 166], the IC50 in test [1] is greater than 30 µM; in test [3], greater than 30 µM; in test [4] it was less than 0.1 µM. Besides, the “PT (Prothrombin time) 2xPT” value in test [2] is less than 50.0 µM.

Consider `CC[C@H](C)NC(=O)c1cc(N)cc(-c2cnc(NC(C)C)c(=O)n2CC(=O)NCc2ccc(C(=N)N)cc2O)c1.O=C(O)C(F)(F)F` [Example 167, 3-amino-5-[1-[2-({4-[amino(imino)methyl]-2-hydroxybenzyl}amino)-2-oxoethyl]-5-(isopropylamino)-6-oxo-1,6-dihydropyrazin-2-yl]-N-[(1S)-1-methylpropyl]benzamide], for which the IC50 in test [1] was greater than 30 µM; in test [3], less than 30 µM; in test [4], less than 0.1 µM. Moreover, the “PT (Prothrombin time) 2xPT” value in test [2] is less than 50.0 µM.

Turning to `COC(=O)c1ccc(CNC(=O)c2cc(N)cc(-c3cnc(NC(C)C)c(=O)n3CC(=O)NCc3ccc(C(=N)N)cc3)c2)cc1.O=C(O)C(F)(F)F` [Example 169], the IC50 in test [1] was greater than 30 µM; in test [3] it was less than 30 µM; in test [4], less than 0.1 µM. The “PT (Prothrombin time) 2xPT” value in test [2] was less than 50.0 µM.

`Cc1cc(N)cc(-c2cnc(NC(C)C)c(=O)n2CC(=O)NCc2ccc(C(=N)N)cc2)c1.Cl.Cl` [Example 170]: the IC50 in test [1] is greater than 30 µM; in test [3] it was greater than 30 µM; in test [4] it was less than 0.1 µM. Further, the “PT (Prothrombin time) 2xPT” value in test [2] was less than 50.0 µM.

As for `CC(C)Nc1ncc(-c2cc(N)cc(C(=O)NCc3ccc(C(=O)O)cc3)c2)n(CC(=O)NCc2ccc(C(=N)N)cc2)c1=O.O=C(O)C(F)(F)F.O=C(O)C(F)(F)F` [Example 171], the IC50 was greater than 30 µM in test [1], greater than 30 µM in test [3] and less than 0.1 µM in test [4]. In addition, in test [2], the “PT (Prothrombin time) 2xPT” value was less than 50.0 µM.

For the compound `CC(C)Nc1ncc(-c2cc(N)cc(C(=O)NCCC(=O)O)c2)n(CC(=O)NCc2ccc(C(=N)N)cc2)c1=O.O=C(O)C(F)(F)F.O=C(O)C(F)(F)F` [Example 172], the IC50 was greater than 30 µM in test [1], greater than 30 µM in test [3] and less than 0.1 µM in test [4]. Moreover, the “PT (Prothrombin time) 2xPT” value in test [2] was less than 50.0 µM.
